Measured values published in patent US20190070208A1, “USE OF TRIACETYL-3-HYDROXYPHENYLADENOSINE IN PREPARING PHARMACEUTICALS FOR TREATMENT OF ATHEROSCLEROSIS” (priority 2016, published 2019).
“And” between values parts separate entries of the source, which are not always exact repeats. Equal values may be shown once.

Assays:
Format in all cases: in vivo
Design in all cases: unit not given here
[1] = system: circulating blood mononuclear cells; test: Circulating blood mononuclear cells of high-fat-fed Syrian golden hamsters (whole blood cell analyzer); conditions: gavage twice a day, high-fat feedstuff hamsters, individual animal values (n=13)
Method: […] Syrian golden hamsters (LVG hamsters, introduced from Charles River Laboratories) aged 6-8 weeks, weighing 90-120 g, male, SPF grade and purchased from Beijing Vital River Laboratory Animal Technology Co., Ltd.
After 7 days of adaptive feeding, animals were randomly divided into a normal control group (n=13), a high-fat feedstuff group (n=13), an IMMH007 low-dose group (50 mg/kg, n=13), an IMMH007 medium-dose group (100 mg/kg, n=13), and an IMMH007 high-dose group (200 mg/kg, n=13), and they were administered twice a day by gavage. The animals were fed in the Second Department of Animal Experiment Center of the Institute of Materia Medica (IMM) at Chinese Academy of Medical Sciences (CAMS); the feeding condition was SPF grade, the temperature was 21±2 DEG C, relative humidity was 50±5%, lighting cycle was 12/12, and 5 per cage. The normal group was fed with normal basal feedstuff, and the high-fat feedstuff group was fed with high fat feedstuff (79.8% of basal feedstuff, 20% of lard, and 0.2% of cholesterol), and the animals were free to take food and drink. The feedstuff was produced by Beijing HFK Bioscience Co., Ltd.
The animals were fasted for 12 hours, and about 200 ul of blood was taken from the canthus of each eye, the blood was dissolved in 30ul of EDTA-2K anticoagulant (20g/L, prepared with normal saline), mixed slightly to avoid coagulation, and the whole blood cells were analyzed by a whole blood cell analyzer.

[2] = system: circulating blood mononuclear cells; test: Circulating blood mononuclear cells of high-fat-fed apoE-/- mice (flow cytometry); conditions: gavage once a day, high-fat diet apoE-/- mice
Method: (§1) ApoE-/-mice (C57BL background), 5-7 weeks old, body weight 18-22 g, male, SPF grade; Purchased from Beijing institute of Laboratory Animal Science.
(§2) After 7 days of adaptive feeding, animals were randomly divided into a high-fat feedstuff group (n=7), an MMH007 low-dose group (50 mg/kg, n=7), an IMMH007 medium-dose group (100 mg/kg, n=7), and an IMMH007 high-dose group (200 mg/kg, n=9), and they were administered once a day by gavage. The animals were fed in the Second Department of Animal Experiment Center of the Institute of Materia Medica (IMM) at Chinese Academy of Medical Sciences (CAMS); the feeding condition was SPF grade, the temperature was 21±2 DEG C, relative humidity was 50±5%, lighting cycle was 12/12, and 5 per cage. All groups were given high-fat diet (70% of basal diet plus 20% of lard and 0.2% of cholesterol) and the animals were free to take food and drink. The feedstuff was produced by Beijing HFK Bioscience Co., Ltd. Body weight was recorded once every week during the experiment.
(§3) The animals were fasted for 12 hours and the following cells were extracted:
(§4) Recirculating blood cells: 50 ul of blood was taken by cardiocentesis, placed in 450 ul of heparin anticoagulant, 1 ml of red blood cell lysis buffer was added, lysed for 10 minutes, centrifuged at 1800 r for 3 min, the supernatant was aspirated, and 100 ul of PBS suspension cells were obtained for subsequent use. The mouse was taken blood from the angular vein to be dead and serum was separated and stored at −80 DEG C.
(§5) Antibodies were added to the above blood cells:
(§6) 3 ul of CD90-PE, 3 ul of B220-PE, 3 ul of CD49b-PE, 3 ul of NK1.1-PE, 3 ul of Ly-6G-PE, 6 ul of CD11b-percp, and 3 ul of Ly-6C-FITC, a single positive tube and a blank control tube were provided, they were incubated with smoothie for 30 min, washed 3 times with PBS, and re-selected cells with 400 ul of PBS, filtered, and flow cytometry was carried out. The mononuclear cells were identified as CD11b^hiCD90^loB220^loCD49b^loNK1.1^loLy-6G^lo cells. […]

[3] = system: circulating blood inflammatory mononuclear cells (Ly6C^hi); test: Circulating blood inflammatory (Ly6Chi) mononuclear cells of high-fat-fed apoE-/- mice (flow cytometry); conditions: gavage once a day, high-fat diet apoE-/- mice
Method: as §1, §2, §3, §4, §5, §6

[4] = IMM-H007 50 mg/kg, individual animal values (n=7), 50 mg/kg
[5] = IMM-H007 100 mg/kg, individual animal values (n=7), 100 mg/kg
[6] = IMM-H007 200 mg/kg, individual animal values (n=9), 200 mg/kg

## CC(=O)OCC1OC(n2cnc3c(Nc4cccc(O)c4)ncnc32)C(OC(C)=O)C1OC(C)=O (stereo not drawn) [IMM-H007, Triacetyl-3-Hydroxyphenyladenosine]
[1]; IMM-H007 50 mg/kg, 50 mg/kg
  circulating blood mononuclear cells: 6.63 and 5.31 and 7.58 and 11.2 and 10.1 and 11 and 10.4 and 9.08 and 6.95 and 8.24 and 9.21 and 6.5 and 8.91
[1]; IMM-H007 100 mg/kg, 100 mg/kg
  circulating blood mononuclear cells: 6.23 and 4.18 and 3.87 and 6.05 and 6.02 and 7.99 and 6.79 and 9.61 and 6.42 and 10.4 and 6.8 and 7.54 and 4.56
[1]; IMM-H007 200 mg/kg, 200 mg/kg
  circulating blood mononuclear cells: 4.42 and 6.33 and 9.94 and 9.51 and 10.3 (2×) and 6.28 and 9.61 and 9.85 and 10.8 and 8.52 and 9.23 and 5.7
[2]; [4]
  circulating blood mononuclear cells: 0.54 and 0.49 (2×) and 1.23 and 0.66 and 0.63 and 0.26
[2]; [5]
  circulating blood mononuclear cells: 0.79 and 0.48 and 0.30 and 0.14 and 0.29 and 0.27 and 0.25
[2]; [6]
  circulating blood mononuclear cells: 0.18 (2×) and 0.69 and 0.28 and 0.24 and 0.27 and 0.23 and 0.21 and 0.10
[3]; [4]
  circulating blood inflammatory mononuclear cells: 0.33 and 0.86 and 0.18 and 0.23 and 0.89 and 0.16 and 0.49
[3]; [5]
  circulating blood inflammatory mononuclear cells: 0.31 and 0.19 and 0.32 and 0.29 and 0.30 and 0.89 and 0.26
[3]; [6]
  circulating blood inflammatory mononuclear cells: 0.19 and 0.35 and 0.17 and 0.20 and 0.30 and 0.13 and 0.15 and 0.28 and 0.21
